In PubChem BioAssay (NCI):
Where “and” joins values, the source holds several entries; their conditions need not be identical. Identical values can stand only once.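 All cell lines were grown in 96-well plates and treated with compound for 48 hours. Abbreviation: GI50, concentration required for 50% inhibition of growth. TGI is the concentration that stops growth completely.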

Legend:
Assay in all cases: NCI anticancer screen, dose series, 48 h
T-47D breast = test system: T-47D breast
NCI/ADR-RES ovarian = test system: NCI/ADR-RES ovarian
NCI-H226 lung = test system: NCI-H226 lung
BT-549 breast = test system: BT-549 breast
HOP-62 NSCLC = test system: HOP-62 NSCLC
OVCAR-8 ovarian = test system: OVCAR-8 ovarian
SF-539 CNS = test system: SF-539 CNS
MDA-MB-435 = test system: MDA-MB-435
HCT-15 colon = test system: HCT-15 colon
UACC-257 melanoma = test system: UACC-257 melanoma
OVCAR-4 ovarian = test system: OVCAR-4 ovarian
SW-620 colon = test system: SW-620 colon
MDA-MB-231 breast = test system: MDA-MB-231 breast
SR leukemia = test system: SR leukemia
A498 renal = test system: A498 renal
MALME-3M melanoma = test system: MALME-3M melanoma
786-0 renal = test system: 786-0 renal
SNB-19 CNS = test system: SNB-19 CNS
MCF7 breast = test system: MCF7 breast
TK-10 renal = test system: TK-10 renal
A549 NSCLC = test system: A549 NSCLC
OVCAR-5 ovarian = test system: OVCAR-5 ovarian
KM12 colon = test system: KM12 colon
SK-OV-3 ovarian = test system: SK-OV-3 ovarian
CCRF-CEM leukemia = test system: CCRF-CEM leukemia
SNB-75 CNS = test system: SNB-75 CNS
M14 melanoma = test system: M14 melanoma
RPMI-8226 leukemia = test system: RPMI-8226 leukemia
ACHN renal = test system: ACHN renal
NCI-H522 lung = test system: NCI-H522 lung
DU-145 prostate = test system: DU-145 prostate
LOX IMVI melanoma = test system: LOX IMVI melanoma
PC-3 prostate = test system: PC-3 prostate
U251 CNS = test system: U251 CNS
HCT-116 colon = test system: HCT-116 colon
UO-31 renal = test system: UO-31 renal
SK-MEL-2 melanoma = test system: SK-MEL-2 melanoma
EKVX NSCLC = test system: EKVX NSCLC
SK-MEL-28 melanoma = test system: SK-MEL-28 melanoma
HL-60(TB) leukemia = test system: HL-60(TB) leukemia
MOLT-4 leukemia = test system: MOLT-4 leukemia
HOP-92 NSCLC = test system: HOP-92 NSCLC
NCI-H460 lung = test system: NCI-H460 lung
NCI-H23 lung = test system: NCI-H23 lung
IGROV1 ovarian = test system: IGROV1 ovarian
SF-268 CNS = test system: SF-268 CNS
COLO 205 colon = test system: COLO 205 colon
UACC-62 melanoma = test system: UACC-62 melanoma
SK-MEL-5 melanoma = test system: SK-MEL-5 melanoma
SN12C renal = test system: SN12C renal
CAKI-1 renal = test system: CAKI-1 renal
HCC-2998 colon = test system: HCC-2998 colon
K-562 leukemia = test system: K-562 leukemia
SF-295 CNS = test system: SF-295 CNS
HS 578T breast = test system: HS 578T breast
HT29 colon = test system: HT29 colon
RXF 393 renal = test system: RXF 393 renal
OVCAR-3 ovarian = test system: OVCAR-3 ovarian

Structure (SMILES): COc1cc2c(Nc3ccc(Cl)c(Cl)c3F)ncnc2cc1OCC1C[C@@H]2CN(C)C[C@@H]2C1 (stereo not given in full)
- GI50 (T-47D breast): 465 nM and 363 nM and 330 nM
- TGI (T-47D breast): 6560 nM and > 10000 nM and 10200 nM
- GI50 (NCI/ADR-RES ovarian): 1730 nM and 1570 nM and 1220 nM
- TGI (NCI/ADR-RES ovarian): 9930 nM and > 9380 nM and 7350 nM
- GI50 (NCI-H226 lung): 3050 nM and > 4500 nM and 2170 nM
- TGI (NCI-H226 lung): 15100 nM and > 10000 nM and 14700 nM
- GI50 (BT-549 breast): 4680 nM and 3760 nM and 2390 nM
- TGI (BT-549 breast): 13700 nM and > 10000 nM and 7660 nM
- GI50 (HOP-62 NSCLC): 1080 nM and 1000 nM and 1520 nM
- TGI (HOP-62 NSCLC): 4170 nM and > 4900 nM and 5750 nM
- GI50 (OVCAR-8 ovarian): 2060 nM and 2090 nM and 2430 nM
- TGI (OVCAR-8 ovarian): 13800 nM and > 10000 nM and 13600 nM
- GI50 (SF-539 CNS): 1470 nM and 1480 nM and 1580 nM
- TGI (SF-539 CNS): 3000 nM and 3010 nM and 3360 nM
- GI50 (MDA-MB-435): 1570 nM and 1780 nM and 1850 nM
- TGI (MDA-MB-435): 3050 nM and 3900 nM and 4290 nM
- GI50 (HCT-15 colon): 1140 nM and 1250 nM and 1130 nM
- TGI (HCT-15 colon): 3700 nM and 5420 nM and 4510 nM
- GI50 (UACC-257 melanoma): 1760 nM and 1680 nM and 1950 nM
- TGI (UACC-257 melanoma): 3640 nM and 3570 nM and 4050 nM
- GI50 (OVCAR-4 ovarian): 1580 nM and 1690 nM and 1750 nM
- TGI (OVCAR-4 ovarian): 13400 nM and > 10000 nM and 14000 nM
- GI50 (SW-620 colon): 1600 nM and 1460 nM and 1720 nM
- TGI (SW-620 colon): 3560 nM and 4060 nM and 5060 nM
- GI50 (MDA-MB-231 breast): 1410 nM and 1120 nM and 1500 nM
- TGI (MDA-MB-231 breast): 4300 nM and 3020 nM and 4880 nM
- GI50 (SR leukemia): 2060 nM and 2090 nM and 1920 nM
- TGI (SR leukemia): 5490 nM and 5210 nM and 5390 nM
- GI50 (A498 renal): 186 nM and 433 nM and 278 nM
- TGI (A498 renal): 1490 nM and 2030 nM and 2050 nM
- GI50 (MALME-3M melanoma): 1790 nM and 1580 nM
- TGI (MALME-3M melanoma): 4250 nM and 3540 nM and 3630 nM
- GI50 (786-0 renal): 1110 nM and 1060 nM and 1030 nM
- TGI (786-0 renal): 2580 nM and 2900 nM and 2850 nM
- GI50 (SNB-19 CNS): 2170 nM and 2390 nM and 2040 nM
- TGI (SNB-19 CNS): 8760 nM and > 6910 nM and 7070 nM
- GI50 (MCF7 breast): 806 nM and 1190 nM and 1520 nM
- TGI (MCF7 breast): 6370 nM and > 6900 nM and 8050 nM
- GI50 (TK-10 renal): 109 nM and 30.2 nM and 47.2 nM
- TGI (TK-10 renal): 1760 nM and 1410 nM and 1450 nM
- GI50 (A549 NSCLC): 1230 nM and 1350 nM and 1280 nM
- TGI (A549 NSCLC): 4050 nM and > 5680 nM and 7930 nM
- GI50 (OVCAR-5 ovarian): 247 nM and 532 nM and 646 nM
- TGI (OVCAR-5 ovarian): 5350 nM and > 10000 nM and 13600 nM
- GI50 (KM12 colon): 2940 nM and 3500 nM and 3850 nM
- TGI (KM12 colon): 9030 nM and > 10000 nM and 15700 nM
- GI50 (SK-OV-3 ovarian): 234 nM and 241 nM and 195 nM
- TGI (SK-OV-3 ovarian): 902 nM and 1510 nM and 865 nM
- TGI (CCRF-CEM leukemia): 7560 nM and 1240 nM and 10500 nM
- GI50 (SNB-75 CNS): 406 nM and 430 nM and 822 nM
- TGI (SNB-75 CNS): 2030 nM and 5860 nM
- GI50 (M14 melanoma): 1770 nM and 1670 nM and 1820 nM
- TGI (M14 melanoma): 3500 nM and 3530 nM and 3770 nM
- GI50 (RPMI-8226 leukemia): 1980 nM and 1490 nM and 1930 nM
- TGI (RPMI-8226 leukemia): 4950 nM and 4290 nM and 5970 nM
- GI50 (ACHN renal): 46.8 nM and 51.2 nM and 55.3 nM
- TGI (ACHN renal): 3480 nM and > 7360 nM and 5740 nM
- GI50 (NCI-H522 lung): 304 nM and 75.2 nM and 640 nM
- TGI (NCI-H522 lung): 2530 nM and 1660 nM and 3100 nM
- GI50 (DU-145 prostate): 751 nM and 532 nM and 673 nM
- TGI (DU-145 prostate): 13600 nM and > 10000 nM and 13500 nM
- GI50 (LOX IMVI melanoma): 953 nM and 1180 nM
- TGI (LOX IMVI melanoma): 2310 nM and 2490 nM and 2460 nM
- GI50 (PC-3 prostate): 1530 nM and 1360 nM and 2120 nM
- TGI (PC-3 prostate): 11600 nM and > 9560 nM and 8990 nM
- GI50 (U251 CNS): 1520 nM and 1800 nM and 2300 nM
- TGI (U251 CNS): 3410 nM and 4430 nM and 6600 nM
- GI50 (HCT-116 colon): 2210 nM and 1590 nM and 1820 nM
- TGI (HCT-116 colon): 10900 nM and > 8580 nM and 9060 nM
- GI50 (UO-31 renal): 171 nM and 101 nM and 177 nM
- TGI (UO-31 renal): 1930 nM and 1610 nM and 1870 nM
- GI50 (SK-MEL-2 melanoma): 2320 nM and 1920 nM and 2050 nM
- TGI (SK-MEL-2 melanoma): 4830 nM and 4010 nM and 4470 nM
- GI50 (EKVX NSCLC): 33 nM and 101 nM
- TGI (EKVX NSCLC): > 6550 nM and 15200 nM
- GI50 (SK-MEL-28 melanoma): 1600 nM and 1570 nM and 1830 nM
- TGI (SK-MEL-28 melanoma): 3330 nM and 3220 nM and 4150 nM
- GI50 (HL-60(TB) leukemia): 2310 nM and 1990 nM and 2430 nM
- TGI (HL-60(TB) leukemia): 5720 nM and 4730 nM and 5730 nM
- GI50 (MOLT-4 leukemia): 2180 nM and 1860 nM and 2230 nM
- TGI (MOLT-4 leukemia): 7030 nM and 7850 nM and 8670 nM
- GI50 (HOP-92 NSCLC): 247 nM and 195 nM and 1500 nM
- TGI (HOP-92 NSCLC): 1850 nM and 1800 nM and 6780 nM
- GI50 (NCI-H460 lung): 2660 nM and 2730 nM and 3350 nM
- TGI (NCI-H460 lung): 9160 nM and > 10000 nM and 13500 nM
- GI50 (NCI-H23 lung): 1980 nM and 2100 nM
- TGI (NCI-H23 lung): 7010 nM and > 6380 nM and 9220 nM
- GI50 (IGROV1 ovarian): 112 nM and 28.4 nM and 50.7 nM
- TGI (IGROV1 ovarian): 1950 nM and 791 nM and 1440 nM
- GI50 (SF-268 CNS): 1250 nM and 951 nM and 1290 nM
- TGI (SF-268 CNS): 4310 nM and > 4820 nM and 7740 nM
- GI50 (COLO 205 colon): 1810 nM and 1830 nM and 1720 nM
- TGI (COLO 205 colon): 3470 nM and 4320 nM and 3930 nM
- GI50 (UACC-62 melanoma): 1910 nM and 1540 nM and 1880 nM
- TGI (UACC-62 melanoma): 4150 nM and 3800 nM and 4410 nM
- GI50 (SK-MEL-5 melanoma): 1610 nM and 1550 nM and 1570 nM
- TGI (SK-MEL-5 melanoma): 3010 nM and 2930 nM and 2940 nM
- GI50 (SN12C renal): 703 nM and 548 nM and 1050 nM
- TGI (SN12C renal): 12600 nM and > 10000 nM and 12200 nM
- GI50 (CAKI-1 renal): 219 nM and 511 nM and 206 nM
- TGI (CAKI-1 renal): 2750 nM and 2360 nM and 2320 nM
- GI50 (HCC-2998 colon): 2370 nM and 1410 nM and 1820 nM
- TGI (HCC-2998 colon): 7100 nM and > 5780 nM and 5030 nM
- GI50 (K-562 leukemia): 240 nM and 114 nM and 170 nM
- TGI (K-562 leukemia): 2690 nM and > 7770 nM and 3140 nM
- GI50 (SF-295 CNS): 1610 nM and 1540 nM and 1460 nM
- TGI (SF-295 CNS): 3410 nM and 3260 nM and 3310 nM
- GI50 (HS 578T breast): 1130 nM and 1400 nM and 1540 nM
- TGI (HS 578T breast): 4670 nM and 5450 nM and 5830 nM
- GI50 (HT29 colon): 695 nM and 759 nM and 621 nM
- TGI (HT29 colon): 4620 nM and 5860 nM and 4380 nM
- GI50 (RXF 393 renal): 808 nM and 690 nM and 846 nM
- TGI (RXF 393 renal): 2360 nM and 2410 nM and 2510 nM
- GI50 (OVCAR-3 ovarian): 1010 nM and 422 nM and 1790 nM
- TGI (OVCAR-3 ovarian): 8180 nM and > 9270 nM and 14700 nM
